Data from PubChem BioAssay (NCI).
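Step 1: Grow cells in 96-well plates. Step 2: Expose to compound for 48 hours at 5 concentrations. Step 3: Interpolate endpoints linearly; if unreached, use highest concentration. Here, GI50 denotes the concentration required for 50% inhibition of growth. At the TGI there is no net growth.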

Tests used:
Experiment in all cases: NCI anticancer screen, dose series, 48 h
786-0 renal = tested on: 786-0 renal
A498 renal = tested on: A498 renal
A549 NSCLC = tested on: A549 NSCLC
ACHN renal = tested on: ACHN renal
CAKI-1 renal = tested on: CAKI-1 renal
CCRF-CEM leukemia = tested on: CCRF-CEM leukemia
COLO 205 colon = tested on: COLO 205 colon
DU-145 prostate = tested on: DU-145 prostate
EKVX NSCLC = tested on: EKVX NSCLC
HCC-2998 colon = tested on: HCC-2998 colon
HCT-116 colon = tested on: HCT-116 colon
HCT-15 colon = tested on: HCT-15 colon
HL-60(TB) leukemia = tested on: HL-60(TB) leukemia
HOP-62 NSCLC = tested on: HOP-62 NSCLC
HOP-92 NSCLC = tested on: HOP-92 NSCLC
HS 578T breast = tested on: HS 578T breast
HT29 colon = tested on: HT29 colon
IGROV1 ovarian = tested on: IGROV1 ovarian
K-562 leukemia = tested on: K-562 leukemia
KM12 colon = tested on: KM12 colon
LOX IMVI melanoma = tested on: LOX IMVI melanoma
M14 melanoma = tested on: M14 melanoma
MALME-3M melanoma = tested on: MALME-3M melanoma
MCF7 breast = tested on: MCF7 breast
MDA-MB-231 breast = tested on: MDA-MB-231 breast
MDA-MB-435 = tested on: MDA-MB-435
MOLT-4 leukemia = tested on: MOLT-4 leukemia
NCI-H226 lung = tested on: NCI-H226 lung
NCI-H23 lung = tested on: NCI-H23 lung
NCI-H460 lung = tested on: NCI-H460 lung
NCI-H522 lung = tested on: NCI-H522 lung
NCI/ADR-RES ovarian = tested on: NCI/ADR-RES ovarian
OVCAR-3 ovarian = tested on: OVCAR-3 ovarian
OVCAR-4 ovarian = tested on: OVCAR-4 ovarian
OVCAR-5 ovarian = tested on: OVCAR-5 ovarian
OVCAR-8 ovarian = tested on: OVCAR-8 ovarian
PC-3 prostate = tested on: PC-3 prostate
RPMI-8226 leukemia = tested on: RPMI-8226 leukemia
RXF 393 renal = tested on: RXF 393 renal
SF-268 CNS = tested on: SF-268 CNS
SF-295 CNS = tested on: SF-295 CNS
SF-539 CNS = tested on: SF-539 CNS
SK-MEL-28 melanoma = tested on: SK-MEL-28 melanoma
SK-MEL-5 melanoma = tested on: SK-MEL-5 melanoma
SK-OV-3 ovarian = tested on: SK-OV-3 ovarian
SN12C renal = tested on: SN12C renal
SNB-19 CNS = tested on: SNB-19 CNS
SNB-75 CNS = tested on: SNB-75 CNS
SR leukemia = tested on: SR leukemia
SW-620 colon = tested on: SW-620 colon
T-47D breast = tested on: T-47D breast
TK-10 renal = tested on: TK-10 renal
U251 CNS = tested on: U251 CNS
UACC-257 melanoma = tested on: UACC-257 melanoma
UACC-62 melanoma = tested on: UACC-62 melanoma
UO-31 renal = tested on: UO-31 renal

With `Oc1ccc(O)c2c1C1(Cl)C(Cl)=C(Cl)C2(Cl)C1(Cl)Cl` the GI50 (786-0 renal) was 7.84 µM, the TGI (786-0 renal) was 22.4 µM and the GI50 (A498 renal) was 1.83 µM. For the same compound, the TGI (A498 renal) was 6.23 µM, the GI50 (A549 NSCLC) was 5.89 µM and the TGI (A549 NSCLC) was 37.4 µM. It also gave a GI50 (ACHN renal) of 4.43 µM, a TGI (ACHN renal) of 21.3 µM and a GI50 (CAKI-1 renal) of 2.44 µM. For the same compound, the TGI (CAKI-1 renal) was 8.31 µM, the GI50 (CCRF-CEM leukemia) was 4.14 µM and the TGI (CCRF-CEM leukemia) was > 100 µM. The GI50 (COLO 205 colon) was 11.6 µM, the TGI (COLO 205 colon) was 25.4 µM and the GI50 (DU-145 prostate) was 3.45 µM. For the same compound, the TGI (DU-145 prostate) was 12.9 µM, the GI50 (EKVX NSCLC) was 1.47 µM and the TGI (EKVX NSCLC) was 7.45 µM. It also gave a GI50 (HCC-2998 colon) of 8.7 µM, a TGI (HCC-2998 colon) of 21.3 µM and a GI50 (HCT-116 colon) of 3.07 µM. For the same compound, the TGI (HCT-116 colon) was 12.8 µM, the GI50 (HCT-15 colon) was 4.15 µM and the TGI (HCT-15 colon) was 26.1 µM. It also gave a GI50 (HL-60(TB) leukemia) of 3.19 µM, a TGI (HL-60(TB) leukemia) of 12.1 µM and a GI50 (HOP-62 NSCLC) of 8.27 µM. For the same compound, the TGI (HOP-62 NSCLC) was 21.2 µM, the GI50 (HOP-92 NSCLC) was 1.51 µM and the TGI (HOP-92 NSCLC) was 7.13 µM. It also gave a GI50 (HS 578T breast) of 2.07 µM, a TGI (HS 578T breast) of 8.09 µM and a GI50 (HT29 colon) of 6.44 µM. For the same compound, the TGI (HT29 colon) was 17.9 µM, the GI50 (IGROV1 ovarian) was 5.73 µM and the TGI (IGROV1 ovarian) was 20.2 µM. The GI50 (K-562 leukemia) was 2.94 µM, the TGI (K-562 leukemia) was 93 µM and the GI50 (KM12 colon) was 2.44 µM. For the same compound, the TGI (KM12 colon) was 7.62 µM, the GI50 (LOX IMVI melanoma) was 3.18 µM and the TGI (LOX IMVI melanoma) was 13.4 µM. The GI50 (M14 melanoma) was 3.03 µM, the TGI (M14 melanoma) was 12 µM and the GI50 (MALME-3M melanoma) was 2.31 µM. The TGI (MALME-3M melanoma) was 9.95 µM, the GI50 (MCF7 breast) was 6.4 µM and the TGI (MCF7 breast) was > 100 µM. For the same compound, the GI50 (MDA-MB-231 breast) was 4.65 µM, the TGI (MDA-MB-231 breast) was 23 µM and the GI50 (MDA-MB-435) was 1.7 µM. It also gave a TGI (MDA-MB-435) of 4.86 µM, a GI50 (MOLT-4 leukemia) of 2.87 µM and a TGI (MOLT-4 leukemia) of 19 µM. It also gave a GI50 (NCI-H226 lung) of 10.7 µM, a TGI (NCI-H226 lung) of 41 µM and a GI50 (NCI-H23 lung) of 5.17 µM. For the same compound, the TGI (NCI-H23 lung) was 22.1 µM, the GI50 (NCI-H460 lung) was 2.86 µM and the TGI (NCI-H460 lung) was 8.94 µM. It also gave a GI50 (NCI-H522 lung) of 3.55 µM, a TGI (NCI-H522 lung) of 12.1 µM and a GI50 (NCI/ADR-RES ovarian) of 3.03 µM. The TGI (NCI/ADR-RES ovarian) was 9.53 µM, the GI50 (OVCAR-3 ovarian) was 2.03 µM and the TGI (OVCAR-3 ovarian) was 5.17 µM. The GI50 (OVCAR-4 ovarian) was 8.32 µM, the TGI (OVCAR-4 ovarian) was > 100 µM and the GI50 (OVCAR-5 ovarian) was 12.6 µM. For the same compound, the TGI (OVCAR-5 ovarian) was 33.8 µM, the GI50 (OVCAR-8 ovarian) was 10.3 µM and the TGI (OVCAR-8 ovarian) was 36.6 µM. The GI50 (PC-3 prostate) was 3.14 µM, the TGI (PC-3 prostate) was 16.4 µM and the GI50 (RPMI-8226 leukemia) was 4.82 µM. It also gave a TGI (RPMI-8226 leukemia) of 63.3 µM, a GI50 (RXF 393 renal) of 3.31 µM and a TGI (RXF 393 renal) of 11.2 µM. The GI50 (SF-268 CNS) was 3.31 µM, the TGI (SF-268 CNS) was 15.5 µM and the GI50 (SF-295 CNS) was 1.67 µM. It also gave a TGI (SF-295 CNS) of 7.2 µM, a GI50 (SF-539 CNS) of 4.38 µM and a TGI (SF-539 CNS) of 18.7 µM. The GI50 (SK-MEL-28 melanoma) was 10.9 µM, the TGI (SK-MEL-28 melanoma) was 81 µM and the GI50 (SK-MEL-5 melanoma) was 5.09 µM. For the same compound, the TGI (SK-MEL-5 melanoma) was 17 µM, the GI50 (SK-OV-3 ovarian) was 7.41 µM and the TGI (SK-OV-3 ovarian) was 20.4 µM. The GI50 (SN12C renal) was 5.29 µM, the TGI (SN12C renal) was 22.7 µM and the GI50 (SNB-19 CNS) was 9.45 µM. For the same compound, the TGI (SNB-19 CNS) was 27.3 µM, the GI50 (SNB-75 CNS) was 1.52 µM and the TGI (SNB-75 CNS) was 6.84 µM. For the same compound, the GI50 (SR leukemia) was 2.65 µM, the TGI (SR leukemia) was 24.7 µM and the GI50 (SW-620 colon) was 4.89 µM. The TGI (SW-620 colon) was 16.7 µM, the GI50 (T-47D breast) was 5.19 µM and the TGI (T-47D breast) was 24.3 µM. It also gave a GI50 (TK-10 renal) of 4.96 µM, a TGI (TK-10 renal) of 27.7 µM and a GI50 (U251 CNS) of 5.76 µM. The TGI (U251 CNS) was 20 µM, the GI50 (UACC-257 melanoma) was 3.97 µM and the TGI (UACC-257 melanoma) was 17.4 µM. The GI50 (UACC-62 melanoma) was 4.96 µM, the TGI (UACC-62 melanoma) was 19.5 µM and the GI50 (UO-31 renal) was 2.43 µM. For the same compound, the TGI (UO-31 renal) was 10.6 µM.
